Reference: PubChem BioAssay (NCI)
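Compound exposure: 48 hours, 5 concentrations, 96-well plates. Definition used: TGI = concentration required for complete inhibition of growth.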

Experiments:
Assay in all cases: inhibition of tumour cell growth, NCI panel, 48 h
IGROV1 ovarian = tested on: IGROV1 ovarian
NCI-H226 lung = tested on: NCI-H226 lung
EKVX NSCLC = tested on: EKVX NSCLC
UACC-62 melanoma = tested on: UACC-62 melanoma
HOP-92 NSCLC = tested on: HOP-92 NSCLC
MDA-MB-231 breast = tested on: MDA-MB-231 breast
CCRF-CEM leukemia = tested on: CCRF-CEM leukemia
M14 melanoma = tested on: M14 melanoma
NCI-H522 lung = tested on: NCI-H522 lung
BT-549 breast = tested on: BT-549 breast
HOP-62 NSCLC = tested on: HOP-62 NSCLC
SNB-75 CNS = tested on: SNB-75 CNS
RPMI-8226 leukemia = tested on: RPMI-8226 leukemia
HCC-2998 colon = tested on: HCC-2998 colon
SN12C renal = tested on: SN12C renal
MDA-MB-435 = tested on: MDA-MB-435
UO-31 renal = tested on: UO-31 renal
HS 578T breast = tested on: HS 578T breast
SK-MEL-28 melanoma = tested on: SK-MEL-28 melanoma
T-47D breast = tested on: T-47D breast
HT29 colon = tested on: HT29 colon
COLO 205 colon = tested on: COLO 205 colon
CAKI-1 renal = tested on: CAKI-1 renal
SNB-19 CNS = tested on: SNB-19 CNS
ACHN renal = tested on: ACHN renal
MOLT-4 leukemia = tested on: MOLT-4 leukemia
A498 renal = tested on: A498 renal
786-0 renal = tested on: 786-0 renal
UACC-257 melanoma = tested on: UACC-257 melanoma
A549 NSCLC = tested on: A549 NSCLC
NCI-H460 lung = tested on: NCI-H460 lung
SW-620 colon = tested on: SW-620 colon
DU-145 prostate = tested on: DU-145 prostate
SF-295 CNS = tested on: SF-295 CNS
OVCAR-5 ovarian = tested on: OVCAR-5 ovarian
PC-3 prostate = tested on: PC-3 prostate
MDA-N = tested on: MDA-N
HCT-15 colon = tested on: HCT-15 colon
LOX IMVI melanoma = tested on: LOX IMVI melanoma
SK-MEL-5 melanoma = tested on: SK-MEL-5 melanoma
HCT-116 colon = tested on: HCT-116 colon
MALME-3M melanoma = tested on: MALME-3M melanoma
OVCAR-8 ovarian = tested on: OVCAR-8 ovarian
MCF7 breast = tested on: MCF7 breast
SF-268 CNS = tested on: SF-268 CNS
U251 CNS = tested on: U251 CNS
SF-539 CNS = tested on: SF-539 CNS
HL-60(TB) leukemia = tested on: HL-60(TB) leukemia
TK-10 renal = tested on: TK-10 renal
SK-OV-3 ovarian = tested on: SK-OV-3 ovarian
NCI-H23 lung = tested on: NCI-H23 lung
NCI/ADR-RES ovarian = tested on: NCI/ADR-RES ovarian
OVCAR-3 ovarian = tested on: OVCAR-3 ovarian
SR leukemia = tested on: SR leukemia
K-562 leukemia = tested on: K-562 leukemia
KM12 colon = tested on: KM12 colon
RXF 393 renal = tested on: RXF 393 renal
OVCAR-4 ovarian = tested on: OVCAR-4 ovarian
SK-MEL-2 melanoma = tested on: SK-MEL-2 melanoma

Measured: TGI

C=CC1ON(Cc2ccccc2)CCc2cc(OC)c(OC)cc21 (stereo not drawn)
67.8 µM: A498 renal
94.4 µM: HL-60(TB) leukemia
89.5 µM: MDA-N
84.9 µM: MDA-MB-435
31.6 µM: SK-MEL-5 melanoma
not listed: RXF 393 renal | OVCAR-4 ovarian | SK-MEL-2 melanoma
> 100 µM: all other assays above

C1CSCCCSCCSCCCSC1
not listed: CCRF-CEM leukemia | MALME-3M melanoma | HL-60(TB) leukemia | NCI/ADR-RES ovarian | OVCAR-3 ovarian | SR leukemia | KM12 colon
> 100 µM: all other assays above
